Reference: publication PMC12377734 (Proceedings of the National Academy of Sciences of the …, 2025)

What was measured:
Assay type in all cases: cell-based
[1] = target: T1, hPIEZO1 (Homo sapiens, UniProt Q92508); assay: single-cell Fura-2 Ca2+ imaging; details: activator; HEK-P1-KO cells, 1 mM Jedi1, pH 7.2, 1.3 mM Ca2+
[2] = target: mPIEZO1 (Mus musculus, UniProt E2JF22, L329P); assay: FLIPR GCaMP6s Ca2+ assay
[3] = target: mPIEZO1 (Mus musculus, UniProt E2JF22); assay: FLIPR GCaMP6s Ca2+ assay
Sequence of mPIEZO1 (Mus musculus, UniProt E2JF22) (E2JF22 whole entry): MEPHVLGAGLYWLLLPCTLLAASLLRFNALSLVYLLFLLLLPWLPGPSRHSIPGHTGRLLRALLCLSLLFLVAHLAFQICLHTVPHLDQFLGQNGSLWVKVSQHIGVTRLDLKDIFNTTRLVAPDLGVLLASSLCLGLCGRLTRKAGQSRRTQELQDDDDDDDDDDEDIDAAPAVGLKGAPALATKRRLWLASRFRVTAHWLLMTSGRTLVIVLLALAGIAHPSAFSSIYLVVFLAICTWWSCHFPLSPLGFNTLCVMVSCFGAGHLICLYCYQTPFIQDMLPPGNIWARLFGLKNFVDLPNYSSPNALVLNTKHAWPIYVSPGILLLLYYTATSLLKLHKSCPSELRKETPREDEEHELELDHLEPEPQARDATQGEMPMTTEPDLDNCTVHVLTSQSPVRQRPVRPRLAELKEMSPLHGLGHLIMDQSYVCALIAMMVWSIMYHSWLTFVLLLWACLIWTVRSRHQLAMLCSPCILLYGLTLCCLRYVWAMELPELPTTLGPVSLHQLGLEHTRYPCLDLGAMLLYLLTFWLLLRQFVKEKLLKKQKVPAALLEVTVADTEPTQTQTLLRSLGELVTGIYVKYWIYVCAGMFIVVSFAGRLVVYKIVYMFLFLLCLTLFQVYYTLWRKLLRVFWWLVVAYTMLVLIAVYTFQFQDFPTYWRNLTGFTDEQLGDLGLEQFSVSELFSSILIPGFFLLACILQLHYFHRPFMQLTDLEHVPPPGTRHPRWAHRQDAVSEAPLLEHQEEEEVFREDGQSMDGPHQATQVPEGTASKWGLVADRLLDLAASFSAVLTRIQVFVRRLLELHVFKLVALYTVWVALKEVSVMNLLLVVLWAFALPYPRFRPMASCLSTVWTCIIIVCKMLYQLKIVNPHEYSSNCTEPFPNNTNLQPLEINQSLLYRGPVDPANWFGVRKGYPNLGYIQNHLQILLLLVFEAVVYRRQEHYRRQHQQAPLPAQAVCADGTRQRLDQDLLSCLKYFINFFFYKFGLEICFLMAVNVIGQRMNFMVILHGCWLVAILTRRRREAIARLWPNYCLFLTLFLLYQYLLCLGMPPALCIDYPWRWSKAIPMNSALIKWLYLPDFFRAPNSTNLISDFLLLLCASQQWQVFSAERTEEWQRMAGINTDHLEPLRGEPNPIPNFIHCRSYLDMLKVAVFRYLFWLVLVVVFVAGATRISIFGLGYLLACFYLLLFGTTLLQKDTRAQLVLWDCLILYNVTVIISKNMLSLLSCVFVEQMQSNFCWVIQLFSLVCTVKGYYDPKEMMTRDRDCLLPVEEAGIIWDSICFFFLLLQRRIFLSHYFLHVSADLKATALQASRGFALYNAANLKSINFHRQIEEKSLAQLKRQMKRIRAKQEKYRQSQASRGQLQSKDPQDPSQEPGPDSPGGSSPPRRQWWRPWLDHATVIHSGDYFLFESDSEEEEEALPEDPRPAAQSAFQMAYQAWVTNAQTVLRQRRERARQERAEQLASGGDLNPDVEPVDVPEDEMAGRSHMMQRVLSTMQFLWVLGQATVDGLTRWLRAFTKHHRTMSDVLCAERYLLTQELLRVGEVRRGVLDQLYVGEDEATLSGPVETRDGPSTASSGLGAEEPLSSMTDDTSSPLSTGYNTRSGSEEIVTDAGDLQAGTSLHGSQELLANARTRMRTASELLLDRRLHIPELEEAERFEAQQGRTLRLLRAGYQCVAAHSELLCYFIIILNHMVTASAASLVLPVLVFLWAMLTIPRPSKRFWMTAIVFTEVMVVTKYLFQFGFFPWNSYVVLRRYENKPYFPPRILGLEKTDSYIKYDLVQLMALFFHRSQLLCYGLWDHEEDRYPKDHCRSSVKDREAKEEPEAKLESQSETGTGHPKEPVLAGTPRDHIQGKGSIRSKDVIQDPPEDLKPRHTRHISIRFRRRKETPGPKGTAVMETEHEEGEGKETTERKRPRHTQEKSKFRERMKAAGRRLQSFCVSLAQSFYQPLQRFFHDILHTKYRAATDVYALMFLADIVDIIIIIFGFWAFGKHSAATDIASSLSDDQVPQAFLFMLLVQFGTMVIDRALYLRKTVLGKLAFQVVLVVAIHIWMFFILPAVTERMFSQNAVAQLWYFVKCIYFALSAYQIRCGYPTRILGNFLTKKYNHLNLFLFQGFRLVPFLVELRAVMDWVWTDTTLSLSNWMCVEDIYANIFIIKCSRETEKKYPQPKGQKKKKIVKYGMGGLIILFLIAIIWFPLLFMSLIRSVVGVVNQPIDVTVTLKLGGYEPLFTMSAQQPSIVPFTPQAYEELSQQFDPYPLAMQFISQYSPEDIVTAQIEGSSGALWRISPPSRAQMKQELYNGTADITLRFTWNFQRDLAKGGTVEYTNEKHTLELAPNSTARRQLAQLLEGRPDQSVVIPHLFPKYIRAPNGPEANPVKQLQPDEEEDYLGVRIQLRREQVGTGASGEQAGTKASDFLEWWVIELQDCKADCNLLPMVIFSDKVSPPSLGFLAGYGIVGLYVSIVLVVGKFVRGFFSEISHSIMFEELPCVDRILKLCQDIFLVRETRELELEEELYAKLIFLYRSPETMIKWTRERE

[4] = target: T1, hPIEZO1; assay: FLIPR GCaMP6s Ca2+ assay
[5] = target: hPIEZO1 (Homo sapiens, UniProt Q92508, L322P); assay: FLIPR GCaMP6s Ca2+ assay
Sequence of hPIEZO1 (Homo sapiens, UniProt Q92508, L322P) (Q92508 whole entry L322P): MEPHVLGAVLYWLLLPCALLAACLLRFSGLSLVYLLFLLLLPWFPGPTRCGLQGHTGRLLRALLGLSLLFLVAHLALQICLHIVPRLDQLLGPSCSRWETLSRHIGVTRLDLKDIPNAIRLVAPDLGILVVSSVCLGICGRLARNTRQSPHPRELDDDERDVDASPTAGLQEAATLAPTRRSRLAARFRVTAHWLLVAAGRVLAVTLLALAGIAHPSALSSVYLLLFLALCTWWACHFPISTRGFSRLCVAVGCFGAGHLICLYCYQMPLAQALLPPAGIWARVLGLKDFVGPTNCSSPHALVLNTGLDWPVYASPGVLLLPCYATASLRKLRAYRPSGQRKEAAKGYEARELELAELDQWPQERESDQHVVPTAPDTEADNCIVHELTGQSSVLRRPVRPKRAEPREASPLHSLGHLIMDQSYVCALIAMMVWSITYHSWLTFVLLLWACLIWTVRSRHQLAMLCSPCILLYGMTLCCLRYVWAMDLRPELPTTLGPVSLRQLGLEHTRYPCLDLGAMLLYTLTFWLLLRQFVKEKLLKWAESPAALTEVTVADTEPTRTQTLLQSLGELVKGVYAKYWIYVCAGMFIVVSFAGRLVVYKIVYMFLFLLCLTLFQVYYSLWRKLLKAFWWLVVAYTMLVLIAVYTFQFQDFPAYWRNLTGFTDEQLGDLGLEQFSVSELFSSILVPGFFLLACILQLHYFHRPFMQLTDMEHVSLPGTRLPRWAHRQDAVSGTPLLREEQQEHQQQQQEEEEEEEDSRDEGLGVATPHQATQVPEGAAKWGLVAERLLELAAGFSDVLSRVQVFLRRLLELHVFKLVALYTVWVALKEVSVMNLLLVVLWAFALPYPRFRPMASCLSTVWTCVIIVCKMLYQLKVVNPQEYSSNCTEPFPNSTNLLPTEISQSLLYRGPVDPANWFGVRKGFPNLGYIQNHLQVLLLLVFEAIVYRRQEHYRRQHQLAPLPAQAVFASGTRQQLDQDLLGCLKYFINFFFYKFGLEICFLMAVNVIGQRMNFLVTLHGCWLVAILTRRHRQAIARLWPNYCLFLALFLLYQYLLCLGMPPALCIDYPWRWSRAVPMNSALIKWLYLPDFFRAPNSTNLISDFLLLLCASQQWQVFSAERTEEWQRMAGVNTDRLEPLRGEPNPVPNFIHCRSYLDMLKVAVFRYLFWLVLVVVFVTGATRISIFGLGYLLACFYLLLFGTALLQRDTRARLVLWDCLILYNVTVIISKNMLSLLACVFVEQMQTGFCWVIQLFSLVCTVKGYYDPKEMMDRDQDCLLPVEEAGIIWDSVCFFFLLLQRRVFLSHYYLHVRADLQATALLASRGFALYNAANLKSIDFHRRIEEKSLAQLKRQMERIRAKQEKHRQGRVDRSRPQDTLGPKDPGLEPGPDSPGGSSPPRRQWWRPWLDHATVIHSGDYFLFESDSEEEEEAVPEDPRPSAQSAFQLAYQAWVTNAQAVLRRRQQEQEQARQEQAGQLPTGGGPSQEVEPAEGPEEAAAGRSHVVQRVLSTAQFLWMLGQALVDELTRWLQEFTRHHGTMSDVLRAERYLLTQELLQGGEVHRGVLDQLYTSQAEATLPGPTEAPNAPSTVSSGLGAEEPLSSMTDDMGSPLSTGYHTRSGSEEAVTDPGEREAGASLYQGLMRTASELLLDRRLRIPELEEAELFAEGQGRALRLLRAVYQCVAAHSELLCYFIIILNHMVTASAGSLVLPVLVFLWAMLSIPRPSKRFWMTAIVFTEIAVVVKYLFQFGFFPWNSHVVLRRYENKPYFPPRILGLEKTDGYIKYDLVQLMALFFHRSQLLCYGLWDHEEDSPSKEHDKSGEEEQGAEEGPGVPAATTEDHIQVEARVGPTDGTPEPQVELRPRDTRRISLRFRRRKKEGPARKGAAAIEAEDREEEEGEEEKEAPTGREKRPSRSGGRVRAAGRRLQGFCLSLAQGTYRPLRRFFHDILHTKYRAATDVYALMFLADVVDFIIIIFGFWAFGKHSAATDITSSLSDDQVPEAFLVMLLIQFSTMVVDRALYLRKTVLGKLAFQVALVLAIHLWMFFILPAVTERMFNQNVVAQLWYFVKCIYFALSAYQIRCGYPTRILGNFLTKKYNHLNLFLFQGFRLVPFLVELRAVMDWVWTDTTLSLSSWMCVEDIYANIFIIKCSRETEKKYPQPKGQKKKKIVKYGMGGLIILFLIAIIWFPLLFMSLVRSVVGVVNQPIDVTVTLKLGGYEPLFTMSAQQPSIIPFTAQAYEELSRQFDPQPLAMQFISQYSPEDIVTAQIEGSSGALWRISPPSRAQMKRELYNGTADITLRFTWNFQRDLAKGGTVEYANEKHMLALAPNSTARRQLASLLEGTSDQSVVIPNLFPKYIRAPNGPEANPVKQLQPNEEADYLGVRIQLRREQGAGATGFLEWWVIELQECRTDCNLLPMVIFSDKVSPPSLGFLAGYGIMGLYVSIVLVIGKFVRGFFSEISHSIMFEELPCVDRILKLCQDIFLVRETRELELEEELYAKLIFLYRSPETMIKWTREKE

T1 sequence (Q92508 whole entry): as the sequence (Q92508 whole entry L322P) above, with P322L counted along it
Sequence of mPIEZO1 (Mus musculus, UniProt E2JF22, L329P) (E2JF22 whole entry L329P): as the sequence (E2JF22 whole entry) above, with L329P counted along it

Compound	Fura-2 ratio change at 1 mM [1]	EC50 [2] [µM]	EC50 [3] [µM]	EC50 [4] [µM]	EC50 [5] [µM]
Cc1oc(-c2ccccc2)cc1C(=O)O [Jedi1]	comparable Fura-2 signal increase in response to the application of either Jedi1 or Yoda1				
Clc1cccc(Cl)c1CSc1nnc(-c2cnccn2)s1 [Yoda1]		1.3	4.3	9.1	3.1
